Data on 1 substance can be found in paper PMC7693184 (Angewandte Chemie (International Ed. in English), 2020).

One may read the % inhibition as the drop in the measured response relative to a control, in per cent. A higher % inhibition goes with a strong effect.

The target of this assay is T1, BtuR (ATP:Co(I)rrinoid adenosyltransferase) (Brucella melitensis, UniProt Q8YHV0).
T1 construct: gene BMEI0696
The note with it: excess cob(I)alamin as corrinoid substrate; inhibitor 5 μM; not a substrate itself.

T1 sequence (Q8YHV0 1-189): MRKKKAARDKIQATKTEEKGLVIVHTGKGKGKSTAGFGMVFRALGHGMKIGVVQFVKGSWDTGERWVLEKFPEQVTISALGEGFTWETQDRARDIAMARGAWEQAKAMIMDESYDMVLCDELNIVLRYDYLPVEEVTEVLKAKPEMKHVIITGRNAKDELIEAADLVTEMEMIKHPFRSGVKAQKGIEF

Take nibalamin [Nibl]: the “% inhibition at 5 μM” value was 60%.
